From patent EP1736154A1 (priority 2005, dated 2006)
Starred links: 1 amine or outer side, 2 acyl side, 3 side chain; linkers in the order of their positions; H or OH if unused. Positions of bridges follow the written chain, without caps; N, C: chain ends. Non-standard residues stand in square brackets, D forms with d. Residues, ends and D or L forms follow the SMILES beside them. Adda = CO[C@@H](Cc1ccccc1)[C@@H](C)/C=C(C)/C=C/[C@H](N[*:1])[C@H](C)C(=O)[*:2]; dAsp(3S-Me) = C[C@H](C(=O)[*:3])[C@@H](N[*:1])C(=O)[*:2]; d(γGlu) = O=C(O)[C@@H](CCC(=O)[*:2])N[*:1]; NMeDha = C=C(NC)C(=O)O

Legend:
[1] = system: SMN2 minigene, exon 7; format: cell-based
[2] = system: tau exon 10 minigene; format: cell-based, human
[3] = system: SMN protein; test: SMN protein expression in SMA patient fibroblasts (Western blot with anti-SMN antibody)

Structure (SMILES)	exon 7 inclusion of SMN2 MG [1]	further results
C[C@@]12C(=O)OC(=O)[C@]1(C)[C@H]1CC[C@@H]2O1 [Cantharidin]	promote the exon 7 inclusion	–
C=C1C(=O)N[C@H](C)C(=O)N[C@@H](CC(C)C)C(=O)N[C@@H](C(=O)O)[C@H](C)C(=O)N[C@@H](CCCNC(=N)N)C(=O)N[C@@H](/C=C/C(C)=C/[C@H](C)[C@H](Cc2ccccc2)OC)[C@H](C)C(=O)N[C@@H](C(=O)O)CCC(=O)N1C [Microcystin ―LR, Microcystin-LR] (R[Adda][d(γGlu)][NMeDha][dA]L[dAsp(3S-Me)]-OH; lactam N-7)	promote the exon 7 inclusion	–
CN(N=O)c1cc(O)ccc1O [Dephostatin]	promote the exon 7 inclusion	–
CO[C@H]([C@H](O)CC(=O)[C@@H](C)[C@@H](O)CC[C@@H](C)[C@@H]1O[C@]2(CC[C@@H](C)[C@H](CC[C@H](C)C(C)=O)O2)CC[C@@H]1C)[C@H](OC(=O)C[C@@H](O)C1=C(C)C(=O)OC1=O)C(C)C [Tautomycin]	–	inclusion of tra2-beta1 dependent enhancers, SMN2-minigene [1]: promotes inclusion of tra2-beta1 dependent enhancers; tra2-betal-dependent splicing enhancers (SMN2 MG splicing pattern) [1]: can be manipulated; inclusion of tra2-beta1 dependent enhancers, tau exon 10 minigene [2]: promotes inclusion of tra2-beta1 dependent enhancers; SMN Protein formation in human fibroblasts [3]: promotes SMN Protein formation
COC[C@@H]([C@H](O)[C@H](O)C(=O)NCC[C@H](C)c1nc(/C=C/C[C@@H]2O[C@]3(C[C@@H](O)[C@@H]2C)O[C@H]([C@H](C[C@H](O)[C@H](C)[C@H](O)[C@H](C)/C=C(C)/C(C)=C/C=C/C(C)=C\C#N)OC)[C@H](OP(=O)(O)O)C3(C)C)co1)N(C)C [Calyculin A]	promote the exon 7 inclusion	–
